Data on eight compounds can be found in patent EP4737457A1, “POLYSUBSTITUTED MACROCYCLIC COMPOUND, AND PREPARATION METHOD THEREFOR AND USE THEREOF” (Shenzhen Salubris Pharmaceuticals Co., Ltd., priority 2023, dated 2025).

One series has as its target T1, α-Chymotrypsin (Homo sapiens, UniProt P17538).
T1 construct: α-Chymotrypsin (Sigma, Cat. No. C8946); purchased Sigma C8946
The series can be described thus: Inhibition of Chymotrypsin by absorbance method (S-2586 substrate, 405 nm). It counts as biochemical. As to conditions: Inhibitory Effect of Compounds on Chymotrypsin; 37 °C for 30 minutes. The method, then:
• Enzyme: α-Chymotrypsin (Sigma, Cat. No. C8946) • Substrate: S-2586™ (Boatman Biotech, Cat. No. B2586) • Buffer: 0.05 M HEPES; 0.145 M NaCl; 5 mM KCl and 0.1% PEG 8000, pH 7.4
Test compounds dissolved in 100% DMSO at 10 mM were diluted with 100% DMSO to concentrations of 100 µM, 33.33 µM, 11.11 µM, 3.704 µM, 1.235 µM, 0.412 µM, 0.137 µM, and 0.046 µM. Then 29.4 µL of Chymotrypsin enzyme solution (20 nM) was added to each well of a 384-well plate, with 29.4 µL of buffer added to blank wells instead. Then, 0.6 µL of compound at different concentrations was added; DMSO was used instead for blank and control wells. The plate was mixed using a plate shaker and incubated at 37 °C for 30 minutes.
Finally, 30 µL of substrate at a concentration of 200 µM was added to each well, and the absorbance was measured at 405 nm.
Table 4. Inhibitory Effect of Compounds on Chymotrypsin

The target in the next series is T2, Human Trypsin (Homo sapiens, UniProt P07477).
T2 construct: purchased Sigma T6424
Kind of series: Inhibition of Trypsin by absorbance method (S-2222 substrate, 405 nm). It counts as biochemical. The following applies: Inhibitory Effect of Compounds on Trypsin; 37 °C for 30 minutes. On the procedure: • Enzyme: Human Trypsin (Sigma, Cat. No. T6424) • Substrate: S-2222™ (CHROMOGENIX, Cat. No. 82031639) • Buffer: 0.1 M sodium phosphate; 0.2 M NaCl and 0.5% PEG 8000, pH 7.4
Test compounds dissolved in 100% DMSO at 10 mM were diluted with 100% DMSO to concentrations of 10000 µM, 3333 µM, 1111 µM, 370.4 µM, 123.5 µM, 41.2 µM, 13.7 µM, and 4.6 µM. Then, 29.4 µL of Trypsin enzyme solution (0.8 nM) was added to each well of a 384-well plate, with 29.4 µL of buffer added to blank wells instead. Then, 0.6 µL of compound at different concentrations was added; DMSO was used instead for blank and control wells. The plate was mixed using a plate shaker and incubated at 37 °C for 30 minutes.
Finally, 30 µL of substrate at a concentration of 40 µM was added to each well, and the absorbance was measured at 405 nm.
Table 5. Inhibitory Effect of Compounds on Trypsin

The next series addresses T3, Human FIIa (Homo sapiens, UniProt P00734).
T3 construct: Human FIIa (Enzyme Research Laboratories, Cat. No. HT 1002a); purchased Enzyme Research Laboratories HT 1002a
Kind of series: Inhibition of coagulation factor FIIa by absorbance method (S-2366 substrate, 405 nm). It counts as biochemical. The following applies: Inhibitory Effect of Compounds on Coagulation Factor FIIa; 37 °C for 30 minutes. On the procedure: Then 29.4 μL of FIIa enzyme solution (4 nM) was added to each well of a 384-well plate, with 29.4 μL of buffer added to blank wells instead. Then, 0.6 μL of compound at different concentrations was added; DMSO was used instead for blank and control wells. The plate was mixed using a plate shaker and incubated at 37 °C for 30 minutes. […] Table 6. Inhibitory Effect of Compounds on Coagulation Factor FIIa

The target of another series is Human Factor XIa (Homo sapiens, UniProt P03951). The series can be described thus: Inhibition of human coagulation Factor XIa by absorbance method (S-2366 substrate, 405 nm). It counts as biochemical. The following applies: incubated at 37 °C for 20 minutes; substrate 800 µM; read-out: Recombinant Enzyme FXIa IC50. On the procedure: • Enzyme: Human Factor XIa (ENZYME […], Cat. No. HFXIa 1111a) • Substrate: S-2366™ (CHROMOGENIX, Cat. No. 82109039) • Buffer: 145 mM NaCl, 5 mM KCl, 1 mg/mL PEG 8000, 30 mM HEPES, pH 7.4.
Chain of Human Factor XIa (P03951 388-625 limits assumed): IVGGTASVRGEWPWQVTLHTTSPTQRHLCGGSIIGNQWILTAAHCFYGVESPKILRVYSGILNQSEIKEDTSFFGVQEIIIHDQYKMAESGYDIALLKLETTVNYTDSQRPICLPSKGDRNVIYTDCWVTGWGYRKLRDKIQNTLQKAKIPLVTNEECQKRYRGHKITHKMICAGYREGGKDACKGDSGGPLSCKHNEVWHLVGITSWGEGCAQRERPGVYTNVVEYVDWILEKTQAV
Chain of Human Factor XIa (P03951 19-387 partner limits assumed): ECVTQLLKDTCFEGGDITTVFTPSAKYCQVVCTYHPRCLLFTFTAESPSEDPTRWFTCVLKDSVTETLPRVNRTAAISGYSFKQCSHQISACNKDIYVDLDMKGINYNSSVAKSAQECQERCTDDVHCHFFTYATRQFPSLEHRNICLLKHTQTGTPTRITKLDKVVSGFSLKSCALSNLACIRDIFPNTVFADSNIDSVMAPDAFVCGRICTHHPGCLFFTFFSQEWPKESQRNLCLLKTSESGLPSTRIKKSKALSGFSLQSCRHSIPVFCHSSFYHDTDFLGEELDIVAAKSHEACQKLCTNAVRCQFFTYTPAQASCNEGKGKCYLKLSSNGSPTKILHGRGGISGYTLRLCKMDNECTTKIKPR
Test compounds dissolved in 100% DMSO at 10 mM were diluted with 100% DMSO to concentrations of 1000 µM, 200 µM, 40 µM, 8 µM, 1.6 µM, 0.32 µM, 0.064 µM, 0.0128 µM, 0.00256 µM, and […]. Then 98 µL of FXIa enzyme solution (77.7 ng/mL) was added to each well of a 96-well plate, with 98 µL of buffer added to blank wells instead. Then, 2 µL of compound at different concentrations was added; DMSO was used instead for blank and control wells. The plate was mixed using a plate shaker and incubated at 37 °C for 20 minutes.
Finally, 100 µL of substrate (800 µM) was added to each well, and the absorbance was measured at 405 nm.
Curve fitting was performed using GraphPad Prism software to calculate the IC50 values.

For a further series, the system named is Pooled human plasma. Kind of series: In vitro anticoagulant effect in human plasma (aPTT, EC1.5x). It counts as biochemical. The following applies: 37 °C for 10 minutes. The method, then: aPTT (Lot 220106600), Calcium Chloride (Lot 210305600), Needle Rinse Solution (Lot 211101300): produced by Shenzhen Mindray Bio-Medical Electronics Co., Ltd. Pooled human plasma: collected from healthy individuals using disposable venous blood collection tubes (Liuyang Sanli Medical Technology Development Co., Ltd., Lot 211108, sodium citrate 9:1). Blood was collected, centrifuged at room temperature at 3000 rpm for 10 minutes, and the supernatant was collected and stored for use (Lot 20220606).
Test compounds dissolved in 100% DMSO at 10 mM were diluted with 100% DMSO to concentrations of 0.29 µM, 0.59 µM, 1.17 µM, 2.34 µM, 4.69 µM, 9.38 µM, 18.75 µM, and 37.50 µM. Then 99 µL of pooled human plasma was added to each 1.5 mL centrifuge tube, followed by the addition of 1 µL of compound at different concentrations; 1 µL of DMSO was added to the blank control. The tubes were mixed by repeated manual inversion, centrifuged briefly using a mini centrifuge to collect the samples, and then incubated in a thermostatic water bath at 37 °C for 10 minutes with mixing. The aPTT was measured using a fully automated coagulation analyzer according to the preset program.
Curve fitting was performed using GraphPad Prism software to calculate EC1.5x.

The nature of series [1]: Pharmacokinetic experiment in rats (iv and PO). As to conditions: male, Sprague-Dawley (SD), rat, plasma, 5 mg/kg.
Text: (§1) Polyethylene glycol 400 (PEG-400, Lot GORKREUT, Shaen Chemical Technology (Shanghai) Co., Ltd.), DMSO (Lot 20200319, Guangdong Guanghua Sci-Tech Co., Ltd.), normal saline (Lot C20052604, Jiangxi Kelun Pharmaceutical Co., Ltd.). LC-MS instrument (Thermo Fisher Ultimate 3000 UPLC, TSQ QUANTUM ULTRA triple quadrupole mass spectrometer, AB SCIEX 5500 QTARP).
(§2) SD rats: Male, 180-250 g, purchased from Guangdong Vital River Laboratory Animal Technology Co., Ltd.
(§3) The test compound powder was accurately weighed, completely dissolved in DMSO, then PEG-400 was added. The mixture was vortexed and sonicated to mix, followed by the addition of normal saline. The mixture was vortexed and sonicated again to achieve a final concentration of 0.5 mg/mL (DMSO:PEG-400:NS = 5:60:35, V/V/V). The dosing volume was 10 mL/kg for oral gavage and 0.5 mL/kg for intravenous administration.
(§4) After intravenous or oral administration to rats, 200 µL of venous blood was collected at 5 min (not collected for oral group), 15 min, 30 min, 1 h, 2 h, 5 h, 7 h, and 24 h into heparinized EP tubes. The blood was centrifuged at 12,000 rpm for 2 minutes, and the plasma was collected and stored at -80 °C until analysis.
(§5) A precise amount of the test compound was weighed and dissolved in DMSO to 1 mg/mL as a stock solution. An appropriate volume of the compound stock solution was accurately pipetted and diluted with acetonitrile to prepare standard series solutions. 20 µL of each standard series solution was accurately pipetted and added to 180 µL of blank plasma, vortexed to mix, to prepare plasma samples equivalent to plasma concentrations of 1 ng/mL, 3 ng/mL, 10 ng/mL, 30 ng/mL, 100 ng/mL, 300 ng/mL, 1000 ng/mL, 3000 ng/mL, and 5000 ng/mL. Each concentration was analyzed in duplicate to establish the standard curve. 20 µL of plasma sample was taken, and 200 µL of an internal standard (propranolol, 5 ng/mL) in acetonitrile solution was added. The mixture was vortexed and centrifuged at 4000 rpm for 5 minutes. The supernatant was taken for LC-MS analysis. The LC-MS detection conditions were as follows: Chromatographic Column: Waters ACQUITY™ PREMIER HSS T3, 50*2.1 mm, 1.8 µm.
(§6) Mobile phase A: water (0.1% formic acid), mobile phase B: acetonitrile, flow rate: 0.5 mL/min, gradient elution: see Table 2 below.
(§7) After determining the plasma drug concentration by LC-MS, the pharmacokinetic parameters following administration to rats were calculated using the non-compartmental model in WinNonlin 6.1 software.
The nature of a further series: in vivo. As to conditions: male, Sprague-Dawley (SD), rat.

By IC50 is commonly meant the concentration at which inhibition is half-maximal. The term bioavailability denotes dose-corrected exposure relative to a reference, in per cent.

T1 sequence (P17538 34-164 limits assumed, other chains not shown): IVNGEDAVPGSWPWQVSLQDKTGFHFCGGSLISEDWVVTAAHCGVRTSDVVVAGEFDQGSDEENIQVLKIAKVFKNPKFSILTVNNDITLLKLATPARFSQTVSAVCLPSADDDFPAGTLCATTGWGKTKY
T1 sequence (P17538 167-263 limits assumed, other chains not shown): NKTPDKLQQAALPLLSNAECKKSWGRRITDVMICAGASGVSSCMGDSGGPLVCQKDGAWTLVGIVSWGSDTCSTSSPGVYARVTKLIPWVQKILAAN
Text for in vivo: as §1, §2, §3, §4, §5, §6, §7

With `[2H]C([2H])([2H])n1ncc2c1-c1cccc(c1)[C@@H](n1cnc(-c3cc(Cl)ccc3-n3cc(Cl)nn3)cc1=O)CCC[C@@H](C)C(=O)N2` [Comparative compound 2, reference compound], the IC50 against α-Chymotrypsin came to 79.2 nM; against Human Trypsin it was 83.1 nM; against Human FIIa it was 3140 nM.

In the case of `[2H]C([2H])([2H])n1ncc2c1-c1cc(F)cc(c1)[C@@H](n1cnc(-c3cc(Cl)ccc3-n3cc(Cl)nn3)cc1=O)CCC[C@@H](C)C(=O)N2` [Comparative compound 3, reference compound], the IC50 amounted to 103 nM at α-Chymotrypsin, 110 nM on Human Trypsin and 2150 nM against Human FIIa.

As to `[2H]C([2H])([2H])n1ncc2c1-c1cc(F)c(F)c(c1)[C@@H](n1cnc(-c3cc(Cl)ccc3-n3cc(Cl)nn3)cc1=O)CCC[C@@H](C)C(=O)N2` [Compound 1, (3S,7R)-3-(4-(5-chloro-2-(4-chloro-1H-1,2,3-triazol-1-yl)phenyl)-6-oxopyrimidin-1(6H)-yl)-2^4,2^5-difluoro-7-methyl-1^1-(methyl-d3)-1^1H-9-aza-1(5,4)-pyrazola-2(1,3)-benzenacyclononaphan-8-one], the IC50 on Human Factor XIa stood at 0.24 nM; against α-Chymotrypsin it was 411 nM; at Human Trypsin it was 225 nM; on Human FIIa it was 5630 nM.

With `[2H]C([2H])([2H])n1ncc2c1-c1cc(F)c(F)c(c1)[C@@H](n1cnc(-c3c(-n4cc(C(F)(F)F)nn4)ccc(Cl)c3F)cc1=O)CCC[C@@H](C)C(=O)N2` [Compound 4, (3S,7R)-3-(4-(3-chloro-2-fluoro-6-(4-(trifluoromethyl)-1H-1,2,3-triazol-1-yl)phenyl)-6-oxopyrimidin-1(6H)-yl)-2^4,2^5-difluoro-7-methyl-1^1-(methyl-d3)-1^1H-9-aza-1(5 ,4)-pyrazola-2(1,3)-benzenacyclononaphan-8-one], the IC50 at Human Factor XIa is 0.62 nM; against α-Chymotrypsin, 173 nM; at Human Trypsin, 355 nM. Moreover, in the series on Pooled human plasma, the “Human Plasma APTT 1.5x” value was determined as 0.20 µM. The compound further returned a bioavailability in series [1] of 19%.

For `C[C@@H]1CCC[C@H](n2cnc(-c3cc(Cl)ccc3-n3cc(C(F)(F)F)nn3)cc2=O)c2cc(cc(F)c2F)-c2c(cnn2C(F)F)NC1=O` [Compound 12, (3R,7R)-3-(4-(5-chloro-2-(4-(trifluoromethyl)-1H-1,2,3-triazol-1-yl)phenyl) -6-oxopyrimidin-1(6H)-yl)-24,2^5-difluoro-7-methyl-1^1-difluoromethyl-1^1H-9-aza-1(5,4)-pyr azola-2(1,3)-benzenacyclononaphan-8-one], at Human Factor XIa, the IC50 came to 0.31 nM. Further, the “Human Plasma APTT 1.5x” value in the series on Pooled human plasma is reported as 0.28 µM. In the series “in vivo”, this compound displayed a bioavailability of 29.4%.

With `[2H]C([2H])([2H])n1ncc2c1-c1cc(cc(F)c1F)[C@@H](n1cnc(-c3c(-n4cc(C(F)(F)F)nn4)ccc(Cl)c3F)cc1=O)CCC[C@@H](C)C(=O)N2` [Compound 16, (3S,7R)-3-(4-(3-chloro-2-fluoro-6-(4-(trifluoromethyl)-1H-1,2,3-triazol-1-yl)phenyl)-6-oxopyrimidin-1(6H)-yl)-2^52^6-difluoro-7-methyl-1^1-(methyl-d3)-1^1H-9-aza-1(5,4)-pyrazola-2(1,3)-benzenacyclononaphan-8-one], the IC50 at Human Factor XIa is 0.4 nM; on α-Chymotrypsin, 164 nM; at Human Trypsin it was 219 nM; against Human FIIa, 9210 nM. Besides, in the series on Pooled human plasma, the “Human Plasma APTT 1.5x” value is listed as 0.31 µM. This compound also yielded a bioavailability in series [1] of 44.5%.

Regarding `[2H]C([2H])([2H])n1ncc2c1-c1cc(cc(F)c1F)[C@@H](n1cnc(-c3cc(Cl)ccc3-n3cc(Cl)nn3)cc1=O)CCC[C@@H](C)C(=O)N2` [Compound 17, (3S,7R)-3-(4-(5-chloro-2-(4-chloro-1H-1,2,3-triazol-1-yl)phenyl)-6-oxopyrimidin-1(6H)-yl)-2^5,2^6-difluoro-7-methyl-1^1-(methyl-d3)-1^1H-9-aza-1(5,4)-pyrazola-2(1,3)-benzenacyclononaphan-8-one], the IC50 was found to be 0.36 nM at Human Factor XIa, 390 nM on α-Chymotrypsin, 322 nM at Human Trypsin and 6920 nM on Human FIIa. Also, in the series on Pooled human plasma, the “Human Plasma APTT 1.5x” value is listed as 0.04 µM. In series [1], this compound returned a bioavailability of 59.6%.

Turning to `[2H]C([2H])([2H])n1ncc2c1-c1cc(cc(F)c1F)[C@@H](n1cnc(-c3cc(Cl)ccc3-n3cc(C(F)(F)F)nn3)cc1=O)CCC[C@@H](C)C(=O)N2` [Compound 18, (3S,7R)-3-(4-(5-chloro-2-(4-(trifluoromethyl)-1H-1,2,3-triazol-1-yl)phenyl) -6-oxopyrimidin-1(6H)-yl)-2^5,2^6-difluoro-7-methyl-1^1-(methyl-d3)-1^1H-9-aza-1(5,4)-pyrazola-2(1,3)-benzenacyclononaphan-8-one], the IC50 on α-Chymotrypsin turned out to be 223 nM; against Human Trypsin it was 627 nM; at Human FIIa, 11100 nM. In series [1], this compound gave a bioavailability of 21.9%.
